Holding throughout (format): cell-based
In one test the test system is H-RasG12V nanoclustering. In words: H-RasG12V nanoclustering-FRET (FLIM-FRET) in HEK cells. The conditions noted are these: 24 h, conglobatin A 2 μM, salinomycin 1.3 μM, CAY10585 10 μM. As to the method:
In total, 80,000 HEK cells were seeded in 12-well plates containing sterilized 16-mm coverslips and 1 mL medium. The next day, the cells were transfected using jetPRIME or FuGENE HD transfection reagent. For the donor fluorophore-only samples, the cells were transfected with 500 ng mGFP-tagged RasG12V plasmid. For the nanoclustering-FRET pair samples, the cells were transfected with both the donor and acceptor constructs, i.e., pmGFP- and pmCherry- RasG12V at a plasmid ratio of 1:3, respectively, and a total of 800 ng plasmids. The next day, the cells were treated with either 0.1% DMSO vehicle control or the indicated concentrations of compounds diluted in DMEM or RPMI medium for 24 h. For the gene silencing studies, the cells were transfected with the indicated amounts of siRNAs, together with the FRET pair constructs. The plasmids and siRNA were diluted in the same jetPRIME transfection buffer, followed by the addition of jetPRIME. After 48 h of transfection, the cells were fixed in 4% paraformaldehyde for 10 to 15 min, before being mounted onto slides with Mowiol 4–88 (cat. no. 81381, Sigma-Aldrich). The lifetime of the mGFP donor fluorophore was measured using a fluorescence microscope (Zeiss AXIO Observer D1) equipped with a fluorescence lifetime imaging attachment (Lambert Instruments), as described previously in detail. The apparent FRET efficiency (Eapp) was calculated as Eapp = (1 − τDA/τD) × 100%, with the measured fluorescence lifetimes τDA of the FRET sample and the τD of the donor-only sample.

Another test concerns HIF-1α. The test is described as follows: Western blotting of HIF-1α in nuclear extracts. The note with it: Western blot of nuclear extracts, 24 h; K-RasG12V-transfected HEK and MDA-MB-231 cells; conglobatin A 5 or 10 μM, 17-AAG 2 μM. As to the method:
The cells in the RIPA buffer were placed on ice for 20 min, and were then sonicated in ice cold water for 5 min. […] Equal amounts of protein were separated by 10% SDS-PAGE, and were then transferred onto a nitrocellulose membrane (cat. no. NBA 083C001EA, Protran) using a wet transfer system (Bio-Rad) or semidry Transferblot Turbo Transfer System (Bio-Rad). After the transfer, the membranes were blocked for 30 min in 5% skimmed milk dissolved in 1× TBST, and then incubated with 1:2000 primary antibodies in 5% BSA in TBST at 4 °C overnight.
The next day, the membranes were washed three times in TBST for 10 min, and then incubated with secondary antibodies (1:5000) diluted in 5% skimmed milk in TBST for 1 h at RT. […] All of the antigens and molecular weights in kDa are labelled next to the blots on the figures. Uncropped Western blot data are attached as Figure S6.
Background: Immunoblotting shows a protein as a band on a membrane.

The test system of a further test is Gal3. In words: Western blotting of galectin-3. The note with it: Western blot, 24 h; K-RasG12V-transfected HEK and MDA-MB-231 cells. As to the method: The cells were trypsinized, washed with PBS, and lysed in RIPA buffer (cat no. 89900, ThermoFisher Scientific) containing protease and phosphatase inhibitors (cat. no. A32959, ThermoFisher Scientific) and 1 mM phenylmethylsulfonyl fluoride (PMSF). The cells in the RIPA buffer were placed on ice for 20 min, and were then sonicated in ice cold water for 5 min. The lysates were centrifuged at 4 °C, and their protein was quantified using a BCA kit (cat. no. 23225, ThermoFisher Scientific). Equal amounts of protein were separated by 10% SDS-PAGE, and were then transferred onto a nitrocellulose membrane (cat. no. NBA 083C001EA, Protran) using a wet transfer system (Bio-Rad) or semidry Transferblot Turbo Transfer System (Bio-Rad). After the transfer, the membranes were blocked for 30 min in 5% skimmed milk dissolved in 1× TBST, and then incubated with 1:2000 primary antibodies in 5% BSA in TBST at 4 °C overnight. […]
The next day, the membranes were washed three times in TBST for 10 min, and then incubated with secondary antibodies (1:5000) diluted in 5% skimmed milk in TBST for 1 h at RT. […] The protein bands were detected with a ChemiDoc MP instrument (Bio-Rad) after treatment with an ECL reagent (cat. no. 170-5061, BioRad). […]

As to `C/C1=C\[C@H](C)C[C@H](C)[C@H](Cc2cnco2)OC(=O)/C(C)=C/[C@H](C)C[C@H](C)[C@H](Cc2cnco2)OC1=O` [conglobatin A, reference compound], the “H-RasG12V nanoclustering-FRET” value in the test with H-RasG12V nanoclustering is “not H-RasG12V-nanoclustering”. Besides, the “nuclear levels of HIF-1α” value in the test on HIF-1α is reported as “decreased the nuclear levels of HIF-1α”. In addition, in the test with Gal3, the Gal3 levels result was “dose-dependently reduced”.
